According to patent publication US7030134B2, “Pyrazolopyridinyl pyridine and pyrimidine therapeutic compounds” (SmithKline Beecham Corporation, priority 2001, dated 2006):
Where a name gives a salt, the structure may show the parent alone.

Test system: HSV-1
Test: HSV-1 replication in infected Vero 76 cells, DNA hybridization capture assay
Assay type: cell-based, herpes simplex virus 1
Conditions: Human alphaherpesvirus 1, Vero 76
Experimental: Vero 76 cells were maintained in MEM with Earle's salts, L-glutamine, 8% FBS (Hyclone, A-1111-L) and 100 units/mL Penicillin-100 μg/mL Streptomycin. For assay conditions, FBS was reduced to 2%. Cells are seeded into 96-well tissue culture plates at a density of 5×10^4 cells/well after being incubated for 45 min at 37° C. in the presence of HSV-1 or HSV-2 (MOI=0.001). Test compounds are added to the wells and the plates are incubated at 37° C. for 40–48 hours. Cell lysates are prepared as follows: media was removed and replaced with 150 μL/well 0.2 N NaOH with 1% Igepal CA 630 or NP-40. Plates were incubated up to 14 days at room temperature in a humidified chamber to prevent evaporation.
For the detection probe, a gel-purified, digoxigenin-labeled, […] PCR fragment of the HSV UL-15 sequence was utilized. PCR conditions included 0.5 μM primers, 180 μM dTTP, 20 μM dUTP-digoxigenin (Boehringer Mannheim 1558706), 200 μM each of dATP, dCTP, and dGTP, 1×PCR Buffer II (Perkin Elmer), 2.5 mM MgCl2, 0.025 units/μL of AmpliTaq Gold polymerase (Perkin Elmer), and 5 ng of gel-purified HSV DNA per 100 μL. Extension conditions were 10 min at 95° C., followed by 30 cycles of 95° C. for 1 min, 55° C. for 30 sec, and 72° C. for 2 min. The amplification was completed with a 10-min incubation at 72° C. Primers were selected to amplify a 728 bp probe spanning a section of the HSV1 UL 15 open reading frame (nucleotides 249–977). Single-stranded transcripts were purified with Promega M13 Wizard kits. The final product was mixed 1:1 with a mixture of 6 M GuSCN, 100 mM EDTA and 200 μg/mL herring sperm DNA and stored at 4° C.
The capture DNA plasmid (HSV UL13 region in pUC) was linearized by cutting with Xba I, denatured for 15 min at 95° C. and diluted immediately into Reacti-Bind DNA Coating Solution (Pierce, 17250, diluted 1:1 with TE buffer, pH 8) at 1 ng/μL 75 μL/well were added to Corning (#3922 or 9690) white 96-well plates and incubated at room temperature for at least 4 hrs before washing twice with 300 μL/well 0.2×SSC/0.05% Tween-20 (SSC/T buffer). The plates were then incubated overnight at room temperature with 150 μL/well 0.2 N NaOH, 1% IGEPAL and 10 μg/mL herring sperm DNA.
Twenty-seven (27) μL of cell lysate was combined with 45 μL of hybridization solution (final concentration:3M GuSCN, 50 mM EDTA, 100 μg/ml salmon sperm DNA, 5× Denhardt's solution, 0.25×APE, and 5 ng of the digoxigenin-labeled detection probe). APE is 1.5 M NH4-acetate, 0.15 M NH4H2 phosphate, and 5 mM EDTA adjusted to pH 6.0. Mineral oil (50 μL) was added to prevent evaporation. The hybridization plates were incubated at 95° C. for 10 minutes to denature the DNA, then incubated at 42° C. overnight. The wells were washed 6× with 300 μL/well SSC/T buffer then incubated with 75 μL/well anti-digoxigenin-HRP-conjugated antibody (Boehringer Mannheim 1207733, 1:5000 in TE) for 30 min at room temperature. The wells were washed 6× with 300 μL/well with PBS/0.05% Tween-20 before 75 μL/well SuperSignal LBA substrate (Pierce) was added. The plates were incubated at room temperature for 30 minutes and chemiluminescence was measured in a Wallac Victor reader.
The following results were obtained for HSV-1.

Row | SMILES | IC50 [nM]
1 | [H]/N=C(/Nc1cc(Cl)cc2c(-c3ccnc(NC4CCCC4)n3)c(-c3ccc(F)cc3)nn12)NC1CCCC1 [Example 26, N-[5-Chloro-3-[2-(cyclopentylamino)pyrimidin-4-yl]-2-(4-fluorophenyl)pyrazolo[1,5-a]pyridin-7-yl]-N′-cyclopentylguanidine hydrochloride] | 260

Same assay, conditions: Human alphaherpesvirus 1; HSV-1 (MOI=0.001) in Vero 76 cells, 40–48 hours incubation, HSV DNA hybridization chemiluminescence readout; read-out: IC50

Row | SMILES | IC50 [nM]
2 | Fc1ccc(-c2nn3c(N4CCOCC4)cc(Cl)cc3c2-c2ccnc(NC3CCCC3)n2)cc1 [Example 25, 4-[5-Chloro-2-(4-fluorophenyl)-7-(4-morpholinyl)pyrazolo[1,5-a]pyridin-3-yl]-N-cyclopentyl-2-pyrimidinamine] | 190
3 | Fc1ccc(-c2nn3c(NC4CC4)cc(Cl)cc3c2-c2ccnc(NC3CC3)n2)cc1 [Example 27, 5-Chloro-N-cyclopropyl-3-[2-(cyclopropylamino)pyrimidin-4-yl]-2-(4-fluorophenyl)pyrazolo[1,5-a]pyridin-7-amine] | 1600
4 | Clc1cccc(-c2nn3c(Cl)cc(Cl)cc3c2-c2ccnc(NC3CCCC3)n2)c1 [Example 28, N-cyclopentyl-4-[5,7-dichloro-2-(3-chlorophenyl)pyrazolo[1,5-a]pyridin-3-yl]-2-pyrimidinamine] | 3500
5 | Clc1cccc(-c2nn3c(NC4CCCC4)cc(Cl)cc3c2-c2ccnc(NC3CCCC3)n2)c1 [Example 29, N-{4-[5-chloro-2-(3-chlorophenyl)-7-(cyclopentylamino)pyrazolo[1,5-a]pyridin-3-yl]-2-pyrimidinyl}-N-cyclopentylamine] | 350
6 | COc1ccc(-c2nn3c(NC4CC4)cc(Cl)cc3c2-c2ccnc(NC3CCCC3)n2)cc1 [Example 30, N-{4-[5-Chloro-7-(cyclopropylamino)-2-(4-methoxyphenyl)pyrazolo[1,5-a]pyridin-3-yl]-2-pyrimidinyl}-N-cyclopentylamine] | 330
7 | Oc1ccc(-c2nn3c(NC4CC4)cc(Cl)cc3c2-c2ccnc(NC3CCCC3)n2)cc1 [Example 31, 4-[5-Chloro-3-[2-(cyclopentylamino)-4-pyrimidinyl]-7-(cyclopropylamino)pyrazolo[1,5-a]pyridin-2-yl]phenol] | 1500
8 | Clc1cc(NC2CCCC2)n2nc(-c3ccc(OCC4CC4)cc3)c(-c3ccnc(NC4CCCC4)n3)c2c1 [Example 34, 5-Chloro-3-[2-(cyclopentylamino)-4-pyrimidinyl]-N-cyclopentyl-2-[4-(cyclopropylmethoxy)phenyl]pyrazolo[1,5-a]pyridin-7-amine] | 120
9 | COc1ccc(-c2nn3c(NC4CCCC4)cc(Cl)cc3c2-c2ccnc(SC)n2)cc1 [Example 36, N-{5-Chloro-2-(4-methoxyphenyl)-3-[2-(methylsulfanyl)-4-pyrimidinyl]pyrazolo[1,5-a]pyridin-7-yl}-N-cyclopentylamine] | 22000
10 | COc1ccc(-c2nn3c(NC4CCCC4)cc(Cl)cc3c2-c2ccnc([S+](C)[O-])n2)cc1 (centres unmarked) [Example 37, N-{5-Chloro-2-(4-methoxyphenyl)-3-[2-(methylsulfinyl)-4-pyrimidinyl]pyrazolo[1,5-a]pyridin-7-yl}-N-cyclopentylamine] | 6000
11 | COc1ccc(-c2nn3c(NC4CCCC4)cc(Cl)cc3c2-c2ccnc(NC3CC3)n2)cc1 [Example 38, N-{4-[5-Chloro-7-(cyclopentylamino)-2-(4-methoxyphenyl)pyrazolo[1,5-a]pyridin-3-yl]-2-pyrimidinyl}-N-cyclopropylamine] | 340
12 | Clc1cc(NC2CCCC2)n2nc(-c3ccc(OCC4CC4)cc3)c(-c3ccnc(NC4CC4)n3)c2c1 [Example 40, N-(4-{5-Chloro-7-(cyclopentylamino)-2-[4-(cyclopropyl-methoxy)phenyl]pyrazolo[1,5-a]pyridin-3-yl}-2-pyrimidinyl)-N-cyclopropylamine] | 1300
13 | Fc1ccc(-c2nn3c(Cl)cc(NC4CCCC4)cc3c2-c2ccnc(NC3CCCC3)n2)cc1 [Example 41, 7-Chloro-N-cyclopentyl-3-[2-(cyclopentylamino)pyrimidin-4-yl]-2-(4-fluorophenyl)pyrazolo[1,5-a]pyridin-5-amine] | 1300
14 | COCCOc1cc(NC2CCCC2)n2nc(-c3ccc(F)cc3)c(-c3ccnc(NC4CCCC4)n3)c2c1 [Example 46, N-Cyclopentyl-3-[2-(cyclopentylamino)-4-pyrimidinyl]-2-(4-fluorophenyl)-5-(2-methoxyethoxy)pyrazolo[1,5-a]pyridin-7-amine] | 130

Second part, the compound after the results:

Row | IC50 [nM] | SMILES
15 | 800 | Clc1cc(NC2CC2)n2nc(-c3ccc(OCC4CC4)cc3)c(-c3ccnc(NC4CCCC4)n3)c2c1 [Example 32, 5-Chloro-3-[2-(cyclopentylamino)-4-pyrimidinyl]-N-cyclopropyl-2-[4-(cyclopropylmethoxy)phenyl]pyrazolo[1,5-a]pyridin-7-amine]
16 | 800 | Oc1ccc(-c2nn3c(NC4CCCC4)cc(Cl)cc3c2-c2ccnc(NC3CCCC3)n2)cc1 [Example 33, 4-[5-Chloro-3-[2-(cyclopentylamino)-4-pyrimidinyl]-7-(cyclopentylamino)pyrazolo[1,5-a]pyridin-2-yl]phenol]
17 | > 40000 | COc1ccc(-c2nn3c(Cl)cc(Cl)cc3c2-c2ccnc(SC)n2)cc1 [Example 35, 5,7-dichloro-2-(4-methoxyphenyl)-3-[2-(methylthio)pyrimidin-4-yl]pyrazolo[1,5-a]pyridine]
18 | 2000 | Oc1ccc(-c2nn3c(NC4CCCC4)cc(Cl)cc3c2-c2ccnc(NC3CC3)n2)cc1 [Example 39, 4-{5-Chloro-7-(cyclopentylamino)-3-[2-(cyclopropylamino)-4-pyrimidinyl]pyrazolo[1,5-a]pyridin-2-yl}phenol]
19 | 20000 | Fc1ccc(-c2nn3c(NC4CCCC4)c(Br)cc(Br)c3c2-c2ccnc(NC3CCCC3)n2)cc1 [Example 42, 4,6-Dibromo-N-cyclopentyl-3-[2-(cyclopentylamino)pyrimidin-4-yl]-2-(4-fluorophenyl)pyrazolo[1,5-a]pyridin-7-amine]
20 | > 40000 | Fc1ccc(-c2nn3c(NC4CCCC4)c(Br)cc(Br)c3c2-c2nc(NC3CCCC3)ncc2Br)cc1 [Example 43, 4,6-Dibromo-3-[5-bromo-2-(cyclopentylamino)pyrimidin-4-yl]-N-cyclopentyl-2-(4-fluorophenyl)pyrazolo[1,5-a]pyridin-7-amine]
21 | 900 | Fc1ccc(-c2nn3c(NC4CCCC4)c(Cl)ccc3c2-c2ccnc(NC3CCCC3)n2)cc1 [Example 44, 6-Chloro-N-cyclopentyl-3-[2-(cyclopentylamino)pyrimidin-4-yl]-2-(4-fluorophenyl)pyrazolo[1,5-a]pyridin-7-amine]
22 | 150 | COc1cc(NC2CCCC2)n2nc(-c3ccc(F)cc3)c(-c3ccnc(NC4CCCC4)n3)c2c1 [Example 45, N-Cyclopentyl-3-[2-(cyclopentylamino)-4-pyrimidinyl]-2-(4-fluorophenyl)-5-methoxypyrazolo[1,5-a]pyridin-7-amine]

Test system: not given
Test: not given
Conditions: not given

Row | melting point [°C] | SMILES
23 | 167 to 169 | COc1cc(NC2CCCC2)n2nc(-c3ccc(F)cc3)c(-c3ccnc(NC4CCCC4)n3)c2c1 [Example 45, N-Cyclopentyl-3-[2-(cyclopentylamino)-4-pyrimidinyl]-2-(4-fluorophenyl)-5-methoxypyrazolo[1,5-a]pyridin-7-amine]
